From PMC7938888, “Antidepressant drugs act by directly binding to TRKB neurotrophin receptors” (Cell, 2021)

B1: BDNF: brain-derived neurotrophic factor, TRKB ligand (protein, UniProt P23560 19-247, looked up)
Neurotrophic factor BDNF …: APMKEANIRGQGGLAYPGVRTHGTLESVNGPKAGSRGLTSLADTFEHVIEELLDEDQKVRPNEENNKDADLYTSRVMLSSQVPLEPPLLFLLEEYKNYLDAANMSMRVRRHSDPARRGELSVCDSISEWVTAADKKTAVDMSGGTVTVLEKVPVSKGQLKQYFYETKCNPMGYTKEGCRGIDKRHWNSQCRTTQSYVRALTMDSKKRIGWRFIRIDTSCVCTLTIKRGR

Experiments:
[1] = system: TRKA:PLC-γ1 coupling; experiment: TRKA:PLC-γ1 interaction ELISA in MG87 cells expressing TRKA; assay type: cell-based, mouse
[2] = system: TRKB:PLC-γ1 interaction; experiment: TRKB:PLC-γ1 interaction ELISA in cortical cells; assay type: cell-based, rat; conditions: rat cortical cells
Procedure, shortened: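 Sandwich ELISA on cultured cortical cell lysates: plates coated with anti-TRKB or anti-PLC-γ1 capture antibody, samples bound overnight at 4°C, then detected with anti-pY or anti-PLC-γ1 antibody plus HRP-conjugated secondary or streptavidin. Read-out is ECL chemiluminescence.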

[3] = system: pTRKB.Y816; assay type: cell-based, rat; conditions: 10 μM/15 min
Experimental: The TRKB:pY (phosphorylated TRKB), TRKB:PLC-γ1, PLC-γ1:pTRKB.Y816 interactions and were determined by ELISA, based on the general method described in literature ([Antila et al., 2014]; [Fred et al., 2019]), with minor adjustments. Briefly, white 96-well plates (OptiPlate 96F-HB, Perkin Elmer) were coated with capturing anti-TRKB or PLC-γ1 antibody (1:1000) in carbonate buffer (pH = 9.8) overnight (ON) at 4°C. Following a blocking step with 2%BSA in TBS-T (2 h, RT), samples were incubated ON at 4°C. The incubation with antibody against pTRKB.Y816, PLC-γ1 or pY (1:2000, ON, 4°C) was followed by HRP-conjugated anti-Rb IgG (1:5000, 2h, RT) or HRP-conjugated streptavidin (1:10000, 2h, RT). Finally, the chemiluminescent signal generated by the reaction with ECL was analyzed in a plate reader (Varioskan Flash, Thermo Scientific).
The levels of total and phosphorylated TRKB at Y515 or Y816 in MG87.TRKB cells, challenged with BDNF, as well as the levels of PLCg1 and pTRKB.Y816 were measured by western-blotting ([Rantamäki et al., 2007]).

[4] = system: mice; experiment: Forced swimming test (FST); assay type: in vivo, mouse; conditions: FLX 15 mg/kg for 21 days, KET 10 mg/kg i.p. 2 h before
Experimental: Forced swimming test: animals (adult male and female mice, 18-22 weeks old) were placed in 5l glass beaker cylinders (19cm diameter, with 20cm water column) for 6min. The immobility was assessed in the last 4min of the session ([Diniz et al., 2018]). The water was changed between each test. After swimming, animals were towel-dried and kept in a warmed cage before returning to their home cages. Test was videotaped and analyzed by a trained observer blind to treatment.

[5] = system: TRKB.T1ΔEC; experiment: Cell-free ligand binding assay, TRKB deletion construct; conditions: construct with TMD and short juxtamembrane sequences only
[6] = system: surface TRKB; experiment: Surface TRKB ELISA in primary cortical neurons; assay type: cell-based, rat; conditions: primary cortical neurons
Experimental: The surface levels of TRKB were also determined by ELISA ([Zheng et al., 2008]). Briefly, the MG87.TRKB cells or primary cortical cells from rat or mouse embryos, cultivated in clear bottom 96-well plates (ViewPlate 96, Perkin Elmer), were washed with ice-cold PBS and fixed with 100μl of 4% PFA per well. After washing with PBS and blocking with PBS containing 5% nonfat dry milk and 5% BSA, the samples were incubated with primary anti-TRKB antibody (R&D Systems, #AF1494, 1:1000 in blocking buffer) or anti-GluR1 subunit of AMPA receptors (CST, #8850, 1:2000 in blocking buffer) ON at 4°C. Following washing, the samples were incubated with HRP-conjugated anti-goat or anti-rabbit IgG (1:5000 in blocking buffer) for 1h at RT. The cells were washed 4x with 200μl of PBS for 10 min each. Finally, the chemiluminescent signal generated by reaction with ECL was analyzed in a plate reader.

[7] = target: T1, TRKB.Y433F (Mus musculus, UniProt P15209, Y433F); experiment: Cell-free ligand binding assay, TRKB.Y433F mutant; conditions: TRKB.Y433F; read-out: binding affinity of BDNF
T1 construct: wild-type GFP-tagged full length TRKB or the GFP-tagged Y433F TRKB mutant; host or cells: HEK293T
T1 sequence (P15209 32-821 Y433F): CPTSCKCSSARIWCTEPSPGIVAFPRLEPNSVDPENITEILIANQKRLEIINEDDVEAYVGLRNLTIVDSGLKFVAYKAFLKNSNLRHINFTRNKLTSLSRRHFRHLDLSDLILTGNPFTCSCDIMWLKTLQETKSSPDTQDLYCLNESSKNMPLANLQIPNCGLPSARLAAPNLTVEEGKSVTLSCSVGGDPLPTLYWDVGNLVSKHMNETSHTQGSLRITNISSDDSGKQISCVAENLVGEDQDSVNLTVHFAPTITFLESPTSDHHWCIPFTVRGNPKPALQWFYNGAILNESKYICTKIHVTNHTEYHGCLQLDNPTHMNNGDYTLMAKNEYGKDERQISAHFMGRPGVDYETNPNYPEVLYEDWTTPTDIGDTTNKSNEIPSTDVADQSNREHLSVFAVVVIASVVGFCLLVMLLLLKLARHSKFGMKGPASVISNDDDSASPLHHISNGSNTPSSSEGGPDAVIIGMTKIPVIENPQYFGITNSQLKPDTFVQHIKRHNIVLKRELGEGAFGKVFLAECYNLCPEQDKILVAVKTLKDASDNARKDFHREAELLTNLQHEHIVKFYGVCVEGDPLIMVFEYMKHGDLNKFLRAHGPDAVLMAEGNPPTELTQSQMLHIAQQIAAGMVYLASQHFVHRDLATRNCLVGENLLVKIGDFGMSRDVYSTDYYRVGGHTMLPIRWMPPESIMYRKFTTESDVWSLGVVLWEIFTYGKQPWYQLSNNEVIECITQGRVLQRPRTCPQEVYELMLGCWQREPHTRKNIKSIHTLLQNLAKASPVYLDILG
Experimental: The cell-free assays (binding assays) were performed in white 96-well plates, based on the protocol used for western-blotting or ELISA ([Baeza-Raja et al., 2016]; [Das et al., 2015]). The plates were precoated with anti-GFP, anti-FLAG, anti-TRK or anti-TRKB antibody (1:1000) in carbonate buffer (pH 9.8), ON at 4°C. Following blocking with 3% BSA in PBS buffer (2 h at RT), 120 ug of total protein from each sample (of lysates from HEK293T cells transfected to overexpress GFP-TRKB.wt or GFP-TRKB.Y433F) were added and incubated overnight at 4°C under agitation. […] The luminescence was determined via HRP-conjugated streptavidin (1:10000, 1h, RT) activity reaction with ECL by a plate reader. The luminescence signal from blank wells (containing all the reagents but the sample lystates, substituted by the blocking buffer) was used as background. The specific signal was then calculated by subtracting the values of blank wells from the values of the samples with matched concentration of the biotinylated ligand. For Figure 2E, the precipitated TRKB.wt or Y433F was incubated with tritiated imipramine (0-30μM) and the radioactive emission of the ligand was determined by scintillation (OptiPhase Supermix cocktail: #1200-439; MicroBeta2, Perkin-Elmer). The scintillation signal from blank wells was used as background, and the specific signal was then calculated by subtracting the values of blank wells from the values of the samples with matched concentration of the radioactive ligand.

| Molecule | cholesterol-induced TRKA:PLC-γ1 coupling [1] | TRKB interaction with PLC-γ1 [2] | pTRKB at Y816 [3] | immobility in the FST ([4]; TRKB.Y433F mice) | immobility in the FST ([4]; wild-type mice) | binding to TRKB.T1ΔEC [5] | surface expression of TRKB [6] | Kd [7] [pM] |
| --- | --- | --- | --- | --- | --- | --- | --- | --- |
| CC(C)CCC[C@@H](C)[C@H]1CC[C@H]2[C@@H]3CC=C4C[C@@H](O)CC[C@]4(C)[C@H]3CC[C@]12C [CHOL, cholesterol] | Lack of effect | – | – | – | – | – | – | – |
| CNC1(c2ccccc2Cl)CCCCC1=O (stereo not drawn) [KET, ketamine] | – | increased TRKB interaction with PLC-γ1 | enhanced pTRKB at Y816 | ineffective | significantly reduced immobility | – | – | – |
| CNCCC(Oc1ccc(C(F)(F)F)cc1)c1ccccc1 (stereo not drawn) [FLX, fluoxetine] | – | increased TRKB interaction with PLC-γ1 | enhanced pTRKB at Y816 | ineffective | significantly reduced immobility | robust binding | increased the surface expression of TRKB | – |
| B1 | – | – | – | – | – | – | – | 2.9 |
